# Earlier results, collected in patent US20160311826A1, “SGC STIMULATORS” (IRONWOOD PHARMACEUTICALS, INC., priority 2013, published 2016).
# Columns and labels:
# obese mice = details: cited from earlier work
# NO-deficient rats = details: cited from earlier work
# sickle mice = details: oral, high doses; cited from earlier work
# mdx mouse = details: cited from earlier work
# [1] = tested on: dystrophin-deficient zebra fish; details: cited from earlier work
# [2] = tested on: sickle cell disease patients with PHT; details: cited from earlier work
# [3] = tested on: adult sickle cell disease patients; details: infusions; cited from earlier work
smiles,measurement,setting,value
O=C(O)CCCCN(CCc1cc(F)ccc1OCc1ccc(-c2ccc(C(F)(F)F)cc2)cc1)Cc1ccc(C(=O)O)cc1 [BAY 60-2770],overactive bladder,obese mice,ameliorates overactive bladder in obese mice
Nc1nc(-c2nn(Cc3ccccc3F)c3ncccc23)ncc1C1CC1 [BAY-2272],bladder dysfunction,NO-deficient rats,protective effects
N=C(N)NCCC[C@H](N)C(=O)O [L-aminine],"Gardos channel activity, dense cell formation, hemolysis, vascular reactivity",sickle mice,"decrease Gardos channel activity, dense cell formation and homolysis, as well as functional improvements in vascular reactivity"
CCCc1nn(C)c2c(=O)[nH]c(-c3cc(S(=O)(=O)N4CCN(C)CC4)ccc3OCC)nc12 [sildenafil],cardiac dynamics,mdx mouse; mdx mice,improve cardiac dynamics
same,"muscle ischemia, injury and fatigue after a brief bout of exercise",mdx mouse; mdx mouse,"alleviate muscle ischemia, as well as injury and fatigue"
same,dystrophic skeletal muscle and survival,[1],rescue dystrophic skeletal muscle and prolong survival
same,PAP and exercise capacity,"[2]; preliminary studies, sickle cell disease patients with severe PHT",improvements in PAP and exercise capacity
same,serious side effects (Walk-PHaSST trial),"[2]; sickle cell disease patients with Doppler-defined PHT, trial stopped prematurely","higher frequency of serious side effects, including increased rates of VOE, headache, and visual disturbance"
O=NO [sodium nitrite],forearm blood flow,[3],enhanced forearm blood flow
